# Results reported in ChEMBL document CHEMBL1127709, “The rational development of small molecule tachykinin NK3 receptor selective antagonists - the utilisation of a dipeptide chemical library in drug design” (Bioorg Med Chem Lett, 1994).
# pIC50: −log10 of the molar value.
# Tests used:
# Substance-P receptor = Substance-P receptor (Homo sapiens, UniProt P25103); assay: Binding affinity for NK1 receptor binding sites in human lymphoma IM9 cells by using [125I]-Bolton-Hunter substance P as radioligand; assay type: cell-based, IM-9
# Sequence of Substance-P receptor (P25103 whole entry): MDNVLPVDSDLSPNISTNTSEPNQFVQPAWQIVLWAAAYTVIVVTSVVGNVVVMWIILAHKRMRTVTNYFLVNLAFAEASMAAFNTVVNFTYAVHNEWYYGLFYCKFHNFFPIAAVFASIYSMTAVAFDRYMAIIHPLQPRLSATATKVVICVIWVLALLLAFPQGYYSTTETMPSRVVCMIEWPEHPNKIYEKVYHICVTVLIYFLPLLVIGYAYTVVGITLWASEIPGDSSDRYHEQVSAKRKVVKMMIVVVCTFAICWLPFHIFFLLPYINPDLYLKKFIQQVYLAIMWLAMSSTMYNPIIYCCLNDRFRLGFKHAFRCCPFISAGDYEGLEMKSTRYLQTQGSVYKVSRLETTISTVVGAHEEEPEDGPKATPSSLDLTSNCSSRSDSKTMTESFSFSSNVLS
# Neuromedin-K receptor [1] = target: T1, Neuromedin-K receptor (Homo sapiens, UniProt P29371); assay: Displacement of [125I][MePhe]-NKB from human NK3 receptor expressed in CHO cells; assay type: cell-based
# T1 sequence (P29371 whole entry): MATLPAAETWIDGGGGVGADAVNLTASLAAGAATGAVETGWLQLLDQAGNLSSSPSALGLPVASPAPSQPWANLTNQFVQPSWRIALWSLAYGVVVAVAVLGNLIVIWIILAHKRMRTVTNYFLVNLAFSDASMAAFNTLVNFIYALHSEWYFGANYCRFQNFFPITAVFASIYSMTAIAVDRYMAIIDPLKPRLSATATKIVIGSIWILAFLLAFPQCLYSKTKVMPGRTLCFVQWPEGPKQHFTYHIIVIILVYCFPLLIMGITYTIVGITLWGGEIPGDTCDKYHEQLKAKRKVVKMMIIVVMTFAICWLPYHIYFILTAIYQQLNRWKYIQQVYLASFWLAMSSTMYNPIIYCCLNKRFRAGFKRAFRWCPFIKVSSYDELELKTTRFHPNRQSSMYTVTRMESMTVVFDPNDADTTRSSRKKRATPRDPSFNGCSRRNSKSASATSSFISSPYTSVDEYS
# CHO = assay: In vitro inhibition of senktide-evoked increases in intracellular calcium levels in CHO cells using the fluorescent indicator Fura2; assay type: functional, Cricetulus griseus
# Cavia porcellus [2] = species: Cavia porcellus; assay: In vitro inhibition of senktide-induced increases in spontaneous firing of guinea pig habenula neurones; assay type: functional
# Neuromedin-K receptor [3] = target: T2, Neuromedin-K receptor (Cavia porcellus, UniProt P30098); assay: Binding affinity for NK3 receptor binding sites in guinea pig cortical membranes by using [125I][MePhe7]-NKB as radioligand; assay type: cell membranes
# T2 sequence (P30098 whole entry): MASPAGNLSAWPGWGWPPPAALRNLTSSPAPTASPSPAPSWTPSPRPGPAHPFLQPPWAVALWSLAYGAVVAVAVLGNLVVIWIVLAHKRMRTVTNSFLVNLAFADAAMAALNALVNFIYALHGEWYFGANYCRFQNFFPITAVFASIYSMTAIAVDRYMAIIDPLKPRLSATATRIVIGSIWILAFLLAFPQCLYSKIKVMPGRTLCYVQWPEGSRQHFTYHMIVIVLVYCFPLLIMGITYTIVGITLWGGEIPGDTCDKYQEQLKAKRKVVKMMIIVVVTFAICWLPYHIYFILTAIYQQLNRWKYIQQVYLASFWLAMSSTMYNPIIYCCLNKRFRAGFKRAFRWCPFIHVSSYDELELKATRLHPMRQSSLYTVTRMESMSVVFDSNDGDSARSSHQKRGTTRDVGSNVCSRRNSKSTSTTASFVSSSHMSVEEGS
# Cavia porcellus [4] = species: Cavia porcellus; assay: In vitro inhibition of Isometric contractions from longitudinal muscle myenteric plexus preparations with responses to the NK3 receptor selective agonist senktide; assay type: functional
# Substance-K receptor = target: T3, Substance-K receptor (Mesocricetus auratus, UniProt P51144); assay: Binding affinity for NK2 receptor binding sites in membranes prepared from hamster urinary bladder by using [125I]NKA as radioligand
# T3 sequence (P51144 whole entry): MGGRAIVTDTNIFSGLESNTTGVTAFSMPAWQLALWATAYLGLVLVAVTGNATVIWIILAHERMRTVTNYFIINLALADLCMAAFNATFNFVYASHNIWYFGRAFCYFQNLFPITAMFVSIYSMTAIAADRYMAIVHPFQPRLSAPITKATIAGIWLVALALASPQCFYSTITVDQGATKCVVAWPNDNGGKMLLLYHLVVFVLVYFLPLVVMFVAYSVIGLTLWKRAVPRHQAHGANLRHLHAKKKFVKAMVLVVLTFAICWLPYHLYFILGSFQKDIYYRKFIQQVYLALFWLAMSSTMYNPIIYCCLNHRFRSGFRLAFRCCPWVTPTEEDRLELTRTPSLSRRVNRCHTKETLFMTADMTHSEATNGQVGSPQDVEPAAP
smiles,measurement,setting,value
CC(C)(C)OC(=O)N[C@@](C)(Cc1ccccc1)C(=O)N[C@H](Cc1ccccc1)C(=O)NCCCCCCCCO,pIC50,Substance-P receptor,5.00
COCCCCCCCCNC(=O)C(Cc1ccccc1)NC(=O)[C@](C)(Cc1ccccc1)NC(=O)OC(C)(C)C (some centres undefined),pIC50,Neuromedin-K receptor [1],6.99
CC(C)(C)OC(=O)N[C@@H](Cc1ccccc1)C(=O)N[C@](C)(Cc1ccccc1)C(=O)NCCCCCCCNC(N)=O,Ke,CHO,7 nM
CC(C)(C)OC(=O)N[C@@](C)(Cc1ccccc1)C(=O)N[C@H](Cc1ccccc1)C(=O)NCCCCCCCCC(N)=O,Ke,Cavia porcellus [2],25 nM
same,pIC50,Neuromedin-K receptor [3],7.82
same,pIC50,Substance-P receptor,5.00
same,Ke,Cavia porcellus [4],13 nM
same,pIC50,Substance-K receptor,5.30
same,Ke,CHO,15 nM
